Experimental data taken from publication PMC5874533 (Scientia Pharmaceutica, 2018).
Read-outs that look alike come from different tables or passages of the source. Each block holds one molecule with its values, some of them ahead of it.

Tests used:
P-glycoprotein (P-gp) = P-glycoprotein (P-gp) (Homo sapiens, UniProt P08183)
Method: Transport studies. Caco-2 monolayers were rinsed twice with KRB to remove the cell culture medium. Fresh KRB (pH 7.4) was filled into the acceptor compartment and the transport solution (test substance in KRB at pH 7.4) into the donor compartment. The cells were equilibrated for 30 min in a CO2 incubator at 37 °C and stayed there between the sample collection points. After pre-incubation, samples were taken from the donor and acceptor compartment, respectively. The concentration of test compound in the donor compartment was defined as initial donor concentration. At 0 min, 30 min, 60 min, 90 min and 120 min 100 µL samples were drawn from the acceptor compartment. The amount of solution removed was replaced by fresh, pre-warmed KRB. At the final pull point, samples were retrieved from the donor compartment, too. All tests were carried out in triplicate. For studies including the P-glycoprotein (P-gp) inhibitor cyclosporin A and the marker compound for P-gp transport inhibitors, [^3H]-digoxin the substances were applied to both the donor and acceptor compartment in the same concentration. […]
[^3H]-propranolol and [^3H]-digoxin were quantified by liquid scintillation counting. […] After an equilibration period of at least 1 h radiation was measured for 2 min per well in a scintillation counter. The recorded counts in a blank sample were subtracted from the value of each test sample.
Data of the permeability study were calculated using MS Excel (Microsoft, Redmond, WA, USA). Apparent permeability coefficient (Papp) was calculated according to the following equation: Papp=ΔQ 1 1/Δt m0 A VD(cm·s^−1) where ΔQ/Δt is the permeability rate (steady state transport rate) obtained from the profile of the transported mass or radioactivity of substrate versus time (µg or dpm·s^−1). Calculated by the linear regression of time and concentration. A is the area of the exposed cell monolayer (cm^2), m0 is the initial mass or radioactivity of test compound in the donor compartment (µg or dpm), and VD is the buffer volume of donor compartment. […]

[1] = Solubility study in buffer solutions pH 1.2-7.5 (shake flask, HPLC); type: physicochemical; settings: for solubility at 48 h: hydrochloric acid/sodium chloride buffer pH 1.2, 37 °C, pH 1.2, 37 °C
Method: Solubility was investigated in four different buffer systems at two temperatures each.
Preparation of buffer solutions:
pH 1.2: 425.0 mL of 0.2 M hydrochloric acid solution, and 250.0 mL 0.2 M sodium chloride solution diluted to 1000 mL with water;
pH 6.8: 250.0 mL of 0.2 M monobasic potassium phosphate solution, 112.0 mL of 0.1 M sodium hydroxide solution diluted to 1000 mL with water;
pH 7.5: 250.0 mL of 0.2 M monobasic potassium phosphate solution, 112.0 mL of 0.1 M sodium hydroxide solution diluted to 1000 mL with water and adjusted to pH 7.5 with 0.1 M sodium hydroxide solution and.
Flow rate of the mobile phase: 0.5 mL min^−1 and a column temperature of 30 °C. The samples were injected at a volume of 10 µL with detection at wavelength 225 nm.
Preparation of the final test solution: Following stirring, the flask was allowed to deposit the excess amount of substance for 5 min. Thereafter, 1.0 mL of the supernatant was transferred into a 50 mL volumetric flask, dissolved in mobile phase, and adjusted to 50.0 mL with the same solvent. For the study at 25 °C, 5.0 mL of this solution was diluted to 20.0 mL with mobile phase. For the study at 37 °C, 5.0 mL of the solution was diluted to 50.0 mL with mobile phase.
10.0 mL of this solution was dissolved to 100.0 mL with mobile phase.

[2] = Caco-2 monolayer transport (permeability) study; type: in vitro ADME, human; settings: human
Method: (§1) Cell culture. For the maintenance culture, Caco-2 cells were incubated at 37 °C, 5% CO2, and 90% relative humidity in 75 cm^2 culture flasks with supplemented Dulbecco's Modified Eagle's Medium (DMEM). The cells were passaged once a week using trypsin/ethylenediaminetetraacetic acid (EDTA) solution. Approximately 10^6 cells were seeded per flask. The culture medium was changed three times a week. For the transport studies, the Caco-2 cells were inoculated at a density of 60,000 cells/cm^2 on Transwell filter inserts and placed into 12-well flat-bottom cluster plates. The inserts (apical compartments) were supplied with 0.5 mL and the outer wells (basal compartments) with 1.5 mL of DMEM culture medium. The cells for the present transport study were cultured at 37 °C, 5% CO2 and 90% relative humidity in DMEM culture medium for 18 days until they formed confluent monolayers (31 passages). The culture medium was replaced every 2-3 days. […] Transport studies. […] All tests were carried out in triplicate. […] Testing of integrity of monolayers. Each batch of monolayer Caco-2 cells was inoculated and cultured under the same conditions on Transwell filter inserts in parallel. Qualification of intactness of the Caco-2 monolayer batches prior to the transport studies was carried out in triplicate for each transport condition using the selected transport markers fluorescein, [^3H]-propranolol and rhodamine 123. […] Mobile phase A consisted of 0.1% formic acid in water and mobile phase B of 0.1% formic acid in acetonitrile. […] The samples were kept at 10 °C and injected at a volume of 20 μL. The triple quad mass spectrometer system (Waters) was used in the positive (ESI^+) electrospray mode at 2.63 kV. […] Fluorescein and rhodamine 123 samples (100 μL) were determined by fluorescence reading. The samples were collected in 96 well microtiter plates. The fluorescence intensity was recorded by exciting the sample with light at 485 nm and measuring the emitted fluorescence at 535 nm. The fluorescence emission of a blank sample (Krebs-Ringer bicarbonate buffer (KRB) solution) was used as baseline.

Caco-2 cell monolayers = experiment: Caco-2 monolayer transport (permeability) study; type: in vitro ADME, human; settings: Caco-2, 10–100 μM
Method: as §1

Caco-2 cells = experiment: Tolerability of enisamium iodide to Caco-2 cells (TEER); type: cell-based, human
Method: For this purpose, the cells were incubated with the highest dose supposed for the permeability studies (100 μM). After an incubation period of 120 min at 37 °C the TEER was checked to assess the integrity of the cell monolayers. […] All experiments were performed in triplicate. As a positive control, sodium dodecyl sulfate was used in this experiment.
The TEER was calculated according to TEER= Rc(A)=(Rc+f−Rf)A (Ω·cm^2). where Rc(A) is the electrical resistance of the monolayer with the area A (Ω cm^2); Rc+f is the electrical resistance of the monolayer including the filter (Ω); Rf is the electrical resistance of the filter without cells (Ω); and A is the area of the monolayer (cm^2).

[3] = Caco-2, pH 7.4, Caco-2, monolayer qualification marker, read-out: Papp (AB)

P-glycoprotein (P-gp), sequence (P08183 whole entry): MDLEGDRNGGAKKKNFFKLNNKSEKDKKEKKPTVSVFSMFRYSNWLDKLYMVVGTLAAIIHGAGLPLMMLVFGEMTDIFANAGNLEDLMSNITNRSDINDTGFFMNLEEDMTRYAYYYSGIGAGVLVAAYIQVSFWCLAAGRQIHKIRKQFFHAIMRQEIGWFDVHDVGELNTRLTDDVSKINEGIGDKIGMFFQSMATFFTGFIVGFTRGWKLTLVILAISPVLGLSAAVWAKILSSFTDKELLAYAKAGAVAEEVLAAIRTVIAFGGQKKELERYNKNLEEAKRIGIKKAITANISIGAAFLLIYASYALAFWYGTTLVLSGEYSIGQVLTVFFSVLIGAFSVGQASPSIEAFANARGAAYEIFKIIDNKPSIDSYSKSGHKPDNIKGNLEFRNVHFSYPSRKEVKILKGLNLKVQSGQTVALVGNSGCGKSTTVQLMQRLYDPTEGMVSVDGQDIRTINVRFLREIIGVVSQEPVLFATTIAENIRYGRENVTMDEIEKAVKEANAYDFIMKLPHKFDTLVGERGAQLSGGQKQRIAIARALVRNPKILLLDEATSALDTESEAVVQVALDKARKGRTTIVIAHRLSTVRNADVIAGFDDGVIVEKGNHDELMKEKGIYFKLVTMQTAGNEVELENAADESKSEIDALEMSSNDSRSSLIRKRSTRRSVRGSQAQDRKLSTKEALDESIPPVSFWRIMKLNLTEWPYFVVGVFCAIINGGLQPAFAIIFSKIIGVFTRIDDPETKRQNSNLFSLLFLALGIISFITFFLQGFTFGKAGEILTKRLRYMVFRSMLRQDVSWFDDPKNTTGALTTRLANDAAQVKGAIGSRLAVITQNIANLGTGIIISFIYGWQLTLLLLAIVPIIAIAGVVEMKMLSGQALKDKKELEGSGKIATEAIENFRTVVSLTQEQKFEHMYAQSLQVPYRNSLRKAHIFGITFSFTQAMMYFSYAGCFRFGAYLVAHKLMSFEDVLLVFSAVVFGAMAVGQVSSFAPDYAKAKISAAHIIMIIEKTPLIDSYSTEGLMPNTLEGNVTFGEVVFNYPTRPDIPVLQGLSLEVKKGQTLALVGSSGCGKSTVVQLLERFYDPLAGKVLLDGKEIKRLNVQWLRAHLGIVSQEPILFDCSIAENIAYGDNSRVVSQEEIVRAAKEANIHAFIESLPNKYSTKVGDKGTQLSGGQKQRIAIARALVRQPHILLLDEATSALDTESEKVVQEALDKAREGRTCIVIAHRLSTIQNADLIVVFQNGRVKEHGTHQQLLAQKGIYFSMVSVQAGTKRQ

SMILES: C[C@H]1O[C@@H](O[C@H]2[C@@H](O)C[C@H](O[C@H]3[C@@H](O)C[C@H](O[C@H]4CC[C@@]5(C)[C@H](CC[C@@H]6[C@@H]5C[C@@H](O)[C@]5(C)[C@@H](C7=CC(=O)OC7)CC[C@]65O)C4)O[C@@H]3C)O[C@@H]2C)C[C@H](O)[C@@H]1O [[^3H]-digoxin, reference compound]
Bi-directional transport in presence of enisamium iodide (P-glycoprotein (P-gp); [^3H]-digoxin 1 μmol·L^−1, enisamium iodide 10 μmol·L^−1, Caco-2): transported much more in the ba direction as compared to the ab

Solubility classification according to the BCS [1]: highly soluble
Amount that can be dissolved in 250 mL of buffer solution ([1]; 37 °C): at least 31.8 g
solubility at 96 h ([1]; four buffer solutions (pH 1.2, 4.5, 6.8, 7.5), 25 °C, pH 1.2, aqueous buffer, thermodynamic from solid, four buffer solutions from pH 1.2 to 7.5, 25 °C): ~60 mg/mL
solubility ([1]; four buffer solutions (pH 1.2, 4.5, 6.8, 7.5), 37 °C, pH 1.2, aqueous buffer, thermodynamic from solid, four buffer solutions from pH 1.2 to 7.5, 37 °C, depending on the pH): 130 to 150 mg/mL
solubility at 96 h ([1]; hydrochloric acid/sodium chloride buffer pH 1.2, 25 °C, pH 1.2, simulated gastric fluid, thermodynamic from solid, pH 1.2, 25 °C, batch 170215): 63.2 mg/mL
solubility at 96 h ([1]; hydrochloric acid/sodium chloride buffer pH 1.2, 25 °C, pH 1.2, simulated gastric fluid, thermodynamic from solid, pH 1.2, 25 °C, batch 180215): 63.5 mg/mL
solubility at 96 h ([1]; hydrochloric acid/sodium chloride buffer pH 1.2, 25 °C, pH 1.2, simulated gastric fluid, thermodynamic from solid, pH 1.2, 25 °C, batch 190315): 63.2 mg/mL
solubility at 96 h ([1]; hydrochloric acid/sodium chloride buffer pH 1.2, 25 °C, pH 1.2, simulated gastric fluid, thermodynamic from solid, pH 1.2, 25 °C, mean of three batches): 63.3 mg/mL
solubility at 48 h ([1]; pH 1.2, simulated gastric fluid, thermodynamic from solid, batch 170215): 152 mg/mL
solubility at 48 h ([1]; pH 1.2, simulated gastric fluid, thermodynamic from solid, batch 180215): 155 mg/mL
solubility at 48 h ([1]; pH 1.2, simulated gastric fluid, thermodynamic from solid, batch 190315): 155 mg/mL
solubility at 48 h ([1]; pH 1.2, simulated gastric fluid, thermodynamic from solid, mean of three batches): 154 mg/mL
solubility at 96 h ([1]; potassium phosphate buffer pH 6.8, 25 °C, pH 6.8, aqueous buffer, thermodynamic from solid, pH 6.8, 25 °C, batch 170215): 60.8 mg/mL
solubility at 96 h ([1]; potassium phosphate buffer pH 6.8, 25 °C, pH 6.8, aqueous buffer, thermodynamic from solid, pH 6.8, 25 °C, batch 180215): 59.5 mg/mL
solubility at 96 h ([1]; potassium phosphate buffer pH 6.8, 25 °C, pH 6.8, aqueous buffer, thermodynamic from solid, pH 6.8, 25 °C, batch 190315): 60.2 mg/mL
solubility at 96 h ([1]; potassium phosphate buffer pH 6.8, 25 °C, pH 6.8, aqueous buffer, thermodynamic from solid, pH 6.8, 25 °C, mean of three batches): 60.2 mg/mL
solubility at 96 h ([1]; potassium phosphate buffer pH 6.8, 37 °C, pH 6.8, aqueous buffer, thermodynamic from solid, pH 6.8, 37 °C, batch 170215): 131 mg/mL
solubility at 96 h ([1]; potassium phosphate buffer pH 6.8, 37 °C, pH 6.8, aqueous buffer, thermodynamic from solid, pH 6.8, 37 °C, batch 180215): 128 mg/mL
solubility at 96 h ([1]; potassium phosphate buffer pH 6.8, 37 °C, pH 6.8, aqueous buffer, thermodynamic from solid, pH 6.8, 37 °C, batch 190315): 131 mg/mL
solubility at 96 h ([1]; potassium phosphate buffer pH 6.8, 37 °C, pH 6.8, aqueous buffer, thermodynamic from solid, pH 6.8, 37 °C, mean of three batches): 130 mg/mL
solubility at 96 h ([1]; potassium phosphate buffer pH 7.5, 25 °C, pH 7.5, aqueous buffer, thermodynamic from solid, pH 7.5, 25 °C, batch 170215): 58.9 mg/mL
solubility at 96 h ([1]; potassium phosphate buffer pH 7.5, 25 °C, pH 7.5, aqueous buffer, thermodynamic from solid, pH 7.5, 25 °C, batch 180215): 59.2 mg/mL
solubility at 96 h ([1]; potassium phosphate buffer pH 7.5, 25 °C, pH 7.5, aqueous buffer, thermodynamic from solid, pH 7.5, 25 °C, batch 190315): 59.1 mg/mL
solubility at 96 h ([1]; potassium phosphate buffer pH 7.5, 25 °C, pH 7.5, aqueous buffer, thermodynamic from solid, pH 7.5, 25 °C, mean of three batches): 59.1 mg/mL
solubility at 96 h ([1]; potassium phosphate buffer pH 7.5, 37 °C, pH 7.5, aqueous buffer, thermodynamic from solid, pH 7.5, 37 °C, batch 170215): 127 mg/mL
solubility at 96 h ([1]; potassium phosphate buffer pH 7.5, 37 °C, pH 7.5, aqueous buffer, thermodynamic from solid, pH 7.5, 37 °C, batch 180215): 130 mg/mL
solubility at 96 h ([1]; potassium phosphate buffer pH 7.5, 37 °C, pH 7.5, aqueous buffer, thermodynamic from solid, pH 7.5, 37 °C, batch 190315): 126 mg/mL
solubility at 96 h ([1]; potassium phosphate buffer pH 7.5, 37 °C, pH 7.5, aqueous buffer, thermodynamic from solid, pH 7.5, 37 °C, mean of three batches): 128 mg/mL
solubility at 96 h ([1]; sodium acetate/acetic acid buffer pH 4.5, 25 °C, pH 4.5, aqueous buffer, thermodynamic from solid, pH 4.5, 25 °C, batch 170215): 59.7 mg/mL
solubility at 96 h ([1]; sodium acetate/acetic acid buffer pH 4.5, 25 °C, pH 4.5, aqueous buffer, thermodynamic from solid, pH 4.5, 25 °C, batch 180215): 59.3 mg/mL
solubility at 96 h ([1]; sodium acetate/acetic acid buffer pH 4.5, 25 °C, pH 4.5, aqueous buffer, thermodynamic from solid, pH 4.5, 25 °C, batch 190315): 60.9 mg/mL
solubility at 96 h ([1]; sodium acetate/acetic acid buffer pH 4.5, 25 °C, pH 4.5, aqueous buffer, thermodynamic from solid, pH 4.5, 25 °C, mean of three batches): 60 mg/mL
solubility at 96 h ([1]; sodium acetate/acetic acid buffer pH 4.5, 37 °C, pH 4.5, aqueous buffer, thermodynamic from solid, pH 4.5, 37 °C, batch 170215): 132 mg/mL
solubility at 96 h ([1]; sodium acetate/acetic acid buffer pH 4.5, 37 °C, pH 4.5, aqueous buffer, thermodynamic from solid, pH 4.5, 37 °C, batch 180215): 133 mg/mL
solubility at 96 h ([1]; sodium acetate/acetic acid buffer pH 4.5, 37 °C, pH 4.5, aqueous buffer, thermodynamic from solid, pH 4.5, 37 °C, batch 190315): 136 mg/mL
solubility at 96 h ([1]; sodium acetate/acetic acid buffer pH 4.5, 37 °C, pH 4.5, aqueous buffer, thermodynamic from solid, pH 4.5, 37 °C, mean of three batches): 134 mg/mL
Papp A→B at 120 min ([2]; Caco-2, pH 7.4, Caco-2, donor concentrations 10–100 μM, KRB pH 7.4, read-out: Permeability coefficient (Papp), apical to basolateral): 0.2 to 0.3 ×10⁻⁶ cm/s
Evidence for active transport (Caco-2 cell monolayers): no evidence for active transport
Permeability classification (Caco-2 cell monolayers): low in vitro permeability
Fold lower permeation coefficient in ab direction with cyclosporin A compared to without CsA (P-glycoprotein (P-gp); human, Caco-2, 120 min, 10 μM, pH 7.4): more than 3 times
SMILES: C[n+]1ccc(C(=O)NCc2ccccc2)cc1.[I-] [enisamium iodide, 4-(benzylcarbamoyl)-1-methylpyridinium iodide]
TEER relative to TEER measured in medium without test substance (Caco-2 cells; up to 100 μM, after 2 h of incubation): about 100%
P-gp-mediated transport of the substance (P-glycoprotein (P-gp); bi-directional transport 10 μM with/without cyclosporin A 12 μmol·L^−1): not indicative for a P-gp-mediated transport

Papp A→B at 120 min [2, 3]: 0.18 ×10⁻⁶ cm/s
SMILES: O=C1OC2(c3ccc(O)cc3Oc3cc(O)ccc32)c2ccccc21 [fluorescein, reference compound]

Papp A→B at 120 min [2, 3]: 19.6 ×10⁻⁶ cm/s
SMILES: CC(C)NCC(O)COc1cccc2ccccc12 (stereo not shown) [propranolol, reference compound]

efflux ratio at 120 min ([2]; pH 7.4, Caco-2, efflux ratio, monolayer qualification marker, read-out: Papp (BA)/Papp (AB)): 17.1
Papp B→A at 120 min ([2]; pH 7.4, Caco-2, monolayer qualification marker): 4.5 ×10⁻⁶ cm/s
SMILES: COC(=O)c1ccccc1-c1c2ccc(=N)cc-2oc2cc(N)ccc12 [rhodamine 123, reference compound]

SMILES: CCCCCCCCCCCCOS(=O)(=O)[O-].[Na+] [sodium dodecyl sulfate]
TEER after recovery (Caco-2 cells; positive control, growth medium within 24 h): 118 Ω·cm^2
TEER after exposure (Caco-2 cells; positive control, immediate and remaining reduction): < 108 Ω·cm^2
